Some test systems named below: 786-0; BT-549; CAKI-1; CCRF-CEM; COLO 205; EKVX; HCC 2998; HCT-116; HCT-15; HOP-92; HT-29; IGROV-1; M14; MDA-MB-231; MDA-MB-435; MOLT-4; OVCAR-4; PC-3; SK-MEL-5; SK-OV-3.
Common to all, as to experiment: DTP human tumour cell line panel, 48 h

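96-well plates; 48 h exposure; 5 concentrations. Endpoints by linear interpolation between flanking doses. Not reached: highest tested concentration assigned. GI50 marks 50% less growth.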 The source made the active and inactive calls. No stated cut-off is given here; in the data, active = GI50 up to about 1.1 µM and inactive = higher. Square brackets hold non-standard residues; d marks the D form. Peptide text beside a SMILES is read from it. * marks the point of attachment. ξ: configuration not given here. NMeN = CN[C@@H](CC(N)=O)C(=O)O; NMeV = CN[C@H](C(=O)O)C(C)C; ξNMeV = CNC(C(=O)O)C(C)C; Boc = CC(C)(C)OC(=O)*; ξNMeA = CNC(C)C(=O)O

A word on the GI50: it is the concentration at which growth is held to half of that of the control. As for `NCCCN1CCN(CC(=O)O)CCN(CCCN)CCN(CC(=O)O)CC1`, the GI50 in the assay on 786-0 is 6.93 µM (inactive); in the assay on BT-549, > 100 µM (inactive); with CAKI-1, > 100 µM (inactive); in the assay on CCRF-CEM it was > 91.6 µM (inactive); with COLO 205 it was 33.7 µM (inactive); in the assay on EKVX it was > 77.6 µM (inactive). Besides, the GI50 in the assay with HCC 2998 was 19.5 µM (inactive); with HCT-116, > 100 µM (inactive); in the assay with HCT-15, 43.8 µM; in the assay on HOP-92 it was > 100 µM (inactive); in the assay on HT-29, > 19.9 µM (inactive); in the assay on IGROV-1 it was 43.9 µM (inactive). Also, the GI50 in the assay on M14 is 82.6 µM (inactive); in the assay with MDA-MB-231, > 100 µM (inactive); in the assay on MDA-MB-435 it was > 100 µM (inactive); with MOLT-4 it was 7.14 µM (inactive); in the assay with OVCAR-4, > 100 µM (inactive); with PC-3, > 45.1 µM (inactive). Moreover, the GI50 in the assay on SK-MEL-5 was 4.5 µM (inactive); in the assay on SK-OV-3, > 92 µM (inactive).

Turning to `COc1cc(CCNC2=CC(=O)c3ncccc3C2=O)ccc1O`, the GI50 in the assay with 786-0 was 4.2 µM (inactive); in the assay with BT-549, 1.46 µM (inactive); in the assay with CAKI-1, 3.94 µM (inactive); in the assay with CCRF-CEM, 3.56 µM (inactive); with COLO 205, 18.6 µM (inactive); in the assay on EKVX it was 8.85 µM (inactive). Further, the GI50 was 4.23 µM (inactive) with HCC 2998; 3.17 µM (inactive) in the assay on HCT-116; 1.94 µM in the assay on HCT-15; 19.2 µM (inactive) in the assay on HOP-92; 4.2 µM (inactive) in the assay on HT-29; 2.29 µM (inactive) in the assay with IGROV-1. Besides, the GI50 with M14 was 1.71 µM (inactive); with MDA-MB-231, 2.37 µM (inactive); in the assay with MDA-MB-435, 1.44 µM (inactive); in the assay with MOLT-4, 2.99 µM (inactive); in the assay with OVCAR-4 it was 4.79 µM (inactive); in the assay on PC-3, 2.65 µM (inactive). Besides, the GI50 is 0.54 µM (active) in the assay with SK-MEL-5 and 12.6 µM (inactive) in the assay on SK-OV-3.

Consider `O=C(CCN1CCOCC1)c1ccc(Oc2ccc(F)cc2)cc1`, for which the GI50 in the assay with 786-0 was 17.1 µM (inactive); with BT-549 it was 18.2 µM (inactive); in the assay with CAKI-1 it was 18 µM (inactive); in the assay with CCRF-CEM, 30.8 µM (inactive); in the assay on COLO 205 it was 23 µM (inactive); in the assay with EKVX it was 19 µM (inactive). Moreover, the GI50 in the assay on HCC 2998 is 37.2 µM (inactive); in the assay with HCT-116 it was 22.5 µM (inactive); in the assay on HCT-15 it was 19 µM; in the assay with HOP-92, 28.1 µM (inactive); with HT-29, 18.7 µM (inactive); in the assay with IGROV-1, 19.5 µM (inactive). The GI50 with M14 was 18.4 µM (inactive); in the assay with MDA-MB-231 it was 19.6 µM (inactive); with MDA-MB-435, 37.6 µM (inactive); with MOLT-4, 23.7 µM (inactive); in the assay with OVCAR-4, 33.6 µM (inactive); with PC-3, 19.2 µM (inactive). The GI50 is 31.3 µM (inactive) with SK-MEL-5 and > 100 µM (inactive) in the assay with SK-OV-3.

Turning to `COc1cc2c(c3c1c(=O)c1ccccc1n3C)C=CC1(CCCC1)O2`, the GI50 in the assay with 786-0 is 6.56 µM (inactive); with BT-549, 10.1 µM (inactive); in the assay on CAKI-1, 2.54 µM (inactive); in the assay with CCRF-CEM, 9.82 µM (inactive); with COLO 205 it was 13.6 µM (inactive); in the assay with EKVX, 13.5 µM (inactive). For the same compound, the GI50 in the assay with HCC 2998 was 21.8 µM (inactive); in the assay with HCT-116, 15.1 µM (inactive); with HCT-15 it was 14.1 µM; in the assay on HOP-92, 16.6 µM (inactive); with HT-29 it was 7.05 µM (inactive); in the assay with IGROV-1, 12.9 µM (inactive). In addition, the GI50 in the assay on M14 is 13.3 µM (inactive); with MDA-MB-231, 12.4 µM (inactive); in the assay on MDA-MB-435, 16.4 µM (inactive); with MOLT-4, 26.2 µM (inactive); with OVCAR-4, 12.2 µM (inactive); in the assay on PC-3, > 10 µM (inactive). The GI50 with SK-MEL-5 was 12.9 µM (inactive); in the assay with SK-OV-3, 21.6 µM (inactive).

As to `C=C(CCCCCCCCC)CC(=O)SCCNC(=O)CCNC(=O)C(O)C(C)(C)COP(=O)(O)OP(=O)(O)OCC1OC(n2cnc3c(N)ncnc32)C(O)C1OP(=O)(O)O` (stereo not given), the GI50 in the assay with 786-0 is 69.5 µM (inactive); in the assay on BT-549 it was > 60.8 µM (inactive); in the assay with CAKI-1 it was > 100 µM (inactive); in the assay on CCRF-CEM, > 70.6 µM (inactive); with COLO 205, > 100 µM (inactive); with EKVX, 51.2 µM (inactive). For the same compound, the GI50 in the assay on HCC 2998 was 52.8 µM (inactive); in the assay on HCT-116, 45.5 µM (inactive); with HCT-15 it was 50.1 µM; in the assay on HOP-92, 75.5 µM (inactive); in the assay with HT-29, 68.2 µM (inactive); with IGROV-1, 98.2 µM (inactive). Besides, the GI50 with M14 was 25.5 µM (inactive); in the assay with MDA-MB-231 it was > 77.8 µM (inactive); in the assay with MDA-MB-435 it was 26.6 µM (inactive); with MOLT-4, > 57.1 µM (inactive); with OVCAR-4, 60.4 µM (inactive); in the assay with PC-3, 56.4 µM (inactive). In addition, the GI50 was 31.6 µM (inactive) with SK-MEL-5 and > 100 µM (inactive) in the assay on SK-OV-3.

With `COc1cc2c(c(O)c1OC)-c1c(cc(OC)c(OC)c1OC)CC(C)C(C)C2` (stereo not given) [GOMISIN K3], the GI50 in the assay on 786-0 was 37.7 µM (inactive); with BT-549, 40.8 µM (inactive); in the assay on CAKI-1, 42.8 µM (inactive); in the assay on CCRF-CEM, 23.4 µM (inactive); in the assay on COLO 205 it was 32 µM (inactive); in the assay on EKVX, 47.3 µM (inactive). Also, the GI50 was 42.3 µM (inactive) with HCC 2998; 34.7 µM (inactive) with HCT-116; 33 µM in the assay on HCT-15; 36.7 µM (inactive) in the assay on HOP-92; 40.6 µM (inactive) in the assay on HT-29; 51.1 µM (inactive) in the assay with IGROV-1. For the same compound, the GI50 with M14 was 45.1 µM (inactive); with MDA-MB-231, 37.8 µM (inactive); in the assay with MDA-MB-435, 50 µM (inactive); in the assay with MOLT-4, 16.6 µM (inactive); in the assay on OVCAR-4 it was 30.3 µM (inactive); with PC-3 it was 28.6 µM (inactive). The GI50 in the assay with SK-MEL-5 is 35.6 µM (inactive); in the assay with SK-OV-3 it was 82.4 µM (inactive).

With `COC(=O)C(C)N(C)C(=O)[C@H](CC(N)=O)N(C)C(=O)[C@@H]1CCCN1C(=O)[C@H](C(C)C)N(C)C(=O)C(C(C)C)N(C)C(=O)[C@@H](NC(=O)OC(C)(C)C)C(C)C` (stereo not given in full) (Boc-V[ξNMeV][NMeV]P[NMeN][ξNMeA]-OMe), the GI50 with 786-0, in the assay on BT-549, with CAKI-1, in the assay with CCRF-CEM, with COLO 205 and in the assay on EKVX was > 50 µM (inactive) each time. Further, the GI50 with HCC 2998 is > 50 µM (inactive); in the assay with HCT-116, 30.3 µM (inactive); with HCT-15 it was over 100 µM; with HOP-92, > 50 µM (inactive); with HT-29, > 50 µM (inactive); in the assay with IGROV-1 it was > 50 µM (inactive). The GI50 was > 50 µM (inactive) in the assay with M14; > 50 µM (inactive) in the assay on MDA-MB-231; > 50 µM (inactive) in the assay on MDA-MB-435; 9.93 µM (inactive) in the assay with MOLT-4; > 100 µM (inactive) in the assay on OVCAR-4; 11.4 µM (inactive) in the assay with PC-3. In addition, the GI50 is 31.7 µM (inactive) in the assay with SK-MEL-5 and > 50 µM (inactive) in the assay on SK-OV-3.

The record behind these values is ChEMBL document CHEMBL1201862, “PubChem BioAssay data set” (2004).
